Literature values as cited in patent US20210401895A1, “TREATMENT OF A DISEASE OF THE GASTROINTESTINAL TRACT WITH LIVE BIOTHERAPEUTICS” (Progenity, Inc., priority 2017, published 2021).

Columns and labels:
[1] = tested on: dermatophytes, yeasts, moulds and other fungi; conditions: broad spectrum of dermatophytes
[2] = tested on: malignant or hyperactive melanocytes
[3] = tested on: Propionibacterium acnes and Staphylococcus epidermidis; conditions: particularly Propionibacterium acnes and Staphylococcus epidermidis

| Compound | activity against fungi [1] | effect on malignant or hyperactive melanocytes [2] | effects on aerobic and anaerobic organisms [3] |
| --- | --- | --- | --- |
| Cc1cc(C2CCCCC2)n(O)c(=O)c1 [Ciclopirox] | fungicidal, fungistatic and sporicidal activity |  |  |
| O=C(O)CCCCCCCC(=O)O [Azelaic acid] |  | cytotoxic effect | antibacterial effects |
